We go through 31 compounds from ChEMBL document CHEMBL1145891, “Design and synthesis of trans-3-(2-(4-((3-(3-(5-methyl-1,2,4-oxadiazolyl))- phenyl)carboxamido)cyclohexyl)ethyl)-7-methylsulfonyl-2,3,4,5-tetrahydro-1H-3-benzazepine (SB-414796): a potent and selective dopamine D3 receptor antagonist” (J Med Chem, 2003).

The target of one assay is D(2) dopamine receptor (Homo sapiens, UniProt P14416). The experiment in a line: Binding affinity against human Dopamine receptor D2 expressed in CHO cells by using [125I]iodosulpiride as radioligand. Format: cell-based.
The target in another assay is D(3) dopamine receptor (Homo sapiens, UniProt P35462). Briefly: Binding affinity against human Dopamine receptor D3 expressed in CHO cells by using [125I]iodosulpiride as radioligand. Format: cell-based.
D(3) dopamine receptor, sequence (P35462 whole entry): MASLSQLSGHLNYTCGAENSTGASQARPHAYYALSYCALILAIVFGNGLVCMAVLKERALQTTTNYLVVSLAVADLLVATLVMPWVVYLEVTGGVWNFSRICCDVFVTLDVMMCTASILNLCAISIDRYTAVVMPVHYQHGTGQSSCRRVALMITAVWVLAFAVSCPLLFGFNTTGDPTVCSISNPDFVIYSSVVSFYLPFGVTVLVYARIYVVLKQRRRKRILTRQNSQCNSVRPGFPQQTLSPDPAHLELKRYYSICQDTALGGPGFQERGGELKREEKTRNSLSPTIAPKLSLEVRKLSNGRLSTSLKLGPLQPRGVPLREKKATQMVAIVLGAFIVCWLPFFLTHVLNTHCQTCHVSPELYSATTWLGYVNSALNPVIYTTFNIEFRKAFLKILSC

D(2) dopamine receptor, sequence (P14416 whole entry): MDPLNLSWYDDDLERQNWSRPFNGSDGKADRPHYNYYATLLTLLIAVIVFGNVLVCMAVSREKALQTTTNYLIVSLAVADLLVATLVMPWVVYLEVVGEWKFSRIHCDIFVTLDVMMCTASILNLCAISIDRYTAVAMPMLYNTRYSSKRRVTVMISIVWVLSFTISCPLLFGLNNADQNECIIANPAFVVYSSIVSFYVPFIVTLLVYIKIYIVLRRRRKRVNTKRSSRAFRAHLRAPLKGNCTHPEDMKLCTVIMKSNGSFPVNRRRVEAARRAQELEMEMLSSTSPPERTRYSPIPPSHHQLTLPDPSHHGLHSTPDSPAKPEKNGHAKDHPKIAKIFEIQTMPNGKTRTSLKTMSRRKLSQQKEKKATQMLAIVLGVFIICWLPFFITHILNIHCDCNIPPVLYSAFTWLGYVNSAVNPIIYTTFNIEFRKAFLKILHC

Take `COc1ccc(/C=C/C(=O)N[C@H]2CC[C@H](CCN3CCc4ccc(OS(C)(=O)=O)cc4CC3)CC2)cc1`: the Ki (as a rule, a dissociation constant, usually derived from enzyme kinetics or from competition with a known ligand) at D(2) dopamine receptor was 31.6 nM; on D(3) dopamine receptor, 1 nM.

With `Cc1cnc(-c2cccc(C(=O)N[C@H]3CC[C@H](CCN4CCc5ccc(S(C)(=O)=O)cc5CC4)CC3)c2)o1`, the Ki on D(2) dopamine receptor was 631 nM; on D(3) dopamine receptor, 7.94 nM. As for `Cc1cc(C(=O)N[C@H]2CC[C@H](CCN3CCc4ccc(OS(C)(=O)=O)cc4CC3)CC2)c2ccccc2n1`, the figures for the Ki on D(2) dopamine receptor and at D(3) dopamine receptor were 631 nM and 20 nM, respectively. Consider `Cc1ccc2c(C(=O)N[C@H]3CC[C@H](CCN4CCc5ccc(S(C)(=O)=O)cc5CC4)CC3)ccc(F)c2n1`, for which the values for the Ki on D(2) dopamine receptor and at D(3) dopamine receptor were 794 nM and 3.16 nM, respectively. The matching figures for `CS(=O)(=O)Oc1ccc2c(c1)CCN(CC[C@H]1CC[C@H](NC(=O)/C=C/c3ccc(F)cc3)CC1)CC2`: 63.1 nM and 0.794 nM.

On to `CS(=O)(=O)c1ccc2c(c1)CCN(CC[C@H]1CC[C@H](NC(=O)/C=C/c3ccc(C#N)cc3)CC1)CC2`, for which the Ki at D(2) dopamine receptor was 126 nM; at D(3) dopamine receptor, 2 nM. Turning to `COc1cccc(/C=C/C(=O)N[C@H]2CC[C@H](CCN3CCc4ccc(OS(C)(=O)=O)cc4CC3)CC2)c1`, the Ki on D(2) dopamine receptor is 63.1 nM; at D(3) dopamine receptor, 2 nM. As to `CS(=O)(=O)c1ccc2c(c1)CCN(CC[C@H]1CC[C@H](NC(=O)/C=C/c3c(F)cccc3F)CC1)CC2`, the Ki at D(2) dopamine receptor is 398 nM; at D(3) dopamine receptor, 2.51 nM. Turning to `CS(=O)(=O)c1ccc2c(c1)CCN(CC[C@H]1CC[C@H](NC(=O)/C=C/c3ccccc3C#N)CC1)CC2`, the Ki at D(2) dopamine receptor is 158 nM; on D(3) dopamine receptor it was 1.58 nM. In turn, `CS(=O)(=O)Oc1ccc2c(c1)CCN(CC[C@H]1CC[C@H](NC(=O)/C=C/c3cccc(F)c3)CC1)CC2` gave a Ki at D(3) dopamine receptor of 1.26 nM. In the case of `CS(=O)(=O)c1ccc2c(c1)CCN(CC[C@H]1CC[C@H](NC(=O)/C=C/c3cccc(F)c3)CC1)CC2`, the Ki was 126 nM at D(2) dopamine receptor and 1.58 nM at D(3) dopamine receptor.

Take `CS(=O)(=O)c1ccc2c(c1)CCN(CC[C@H]1CC[C@H](NC(=O)/C=C/c3cccc(C#N)c3)CC1)CC2`: the Ki was 158 nM at D(2) dopamine receptor and 2 nM at D(3) dopamine receptor.

As to `CS(=O)(=O)Oc1ccc2c(c1)CCN(CC[C@H]1CC[C@H](NC(=O)/C=C/c3ccccc3F)CC1)CC2`, the Ki on D(3) dopamine receptor was 1.26 nM. Take `CS(=O)(=O)c1ccc2c(c1)CCN(CC[C@H]1CC[C@H](NC(=O)/C=C/c3ccccc3F)CC1)CC2`: the Ki on D(2) dopamine receptor is 126 nM; at D(3) dopamine receptor, 1.26 nM.

Regarding `CS(=O)(=O)c1ccc2c(c1)CCN(CC[C@H]1CC[C@H](NC(=O)/C=C/c3cc(F)cc(F)c3)CC1)CC2`, the Ki on D(2) dopamine receptor was 251 nM; at D(3) dopamine receptor, 2 nM. As for `CS(=O)(=O)c1ccc2c(c1)CCN(CC[C@H]1CC[C@H](NC(=O)/C=C/c3ccc(F)cc3)CC1)CC2`, the Ki on D(2) dopamine receptor was 79.4 nM; at D(3) dopamine receptor it was 1 nM. Take `COc1ccccc1/C=C/C(=O)N[C@H]1CC[C@H](CCN2CCc3ccc(OS(C)(=O)=O)cc3CC2)CC1`: the Ki was 100 nM on D(2) dopamine receptor and 1.26 nM on D(3) dopamine receptor.

In the case of `CS(=O)(=O)Oc1ccc2c(c1)CCN(CC[C@H]1CC[C@H](NC(=O)c3cccc(-n4cccc4)c3)CC1)CC2`, the Ki was 251 nM on D(2) dopamine receptor and 3.16 nM on D(3) dopamine receptor. The matching figures for `Cc1ncc(-c2cccc(C(=O)N[C@H]3CC[C@H](CCN4CCc5ccc(OS(C)(=O)=O)cc5CC4)CC3)c2)o1`: 200 nM and 1.26 nM. As for `Cc1ccc2c(C(=O)N[C@H]3CC[C@H](CCN4CCc5ccc(OS(C)(=O)=O)cc5CC4)CC3)cccc2n1`, the Ki is 200 nM on D(2) dopamine receptor and 1.26 nM on D(3) dopamine receptor. The matching figures for `Cc1ccc2c(C(=O)N[C@H]3CC[C@H](CCN4CCc5ccc(S(C)(=O)=O)cc5CC4)CC3)cccc2n1`: 316 nM and 3.98 nM. For `CS(=O)(=O)Oc1ccc2c(c1)CCN(CC[C@H]1CC[C@H](NC(=O)c3cccc(-c4ncccn4)c3)CC1)CC2`, the Ki was 316 nM at D(2) dopamine receptor and 2 nM at D(3) dopamine receptor. In the case of `Cc1ncc(-c2cccc(C(=O)N[C@H]3CC[C@H](CCN4CCc5ccc(S(C)(=O)=O)cc5CC4)CC3)c2)o1`, the Ki on D(2) dopamine receptor is 631 nM; on D(3) dopamine receptor, 6.31 nM.

In the case of `Cn1nccc1-c1cccc(C(=O)N[C@H]2CC[C@H](CCN3CCc4ccc(S(C)(=O)=O)cc4CC3)CC2)c1`, the Ki at D(2) dopamine receptor is 501 nM; at D(3) dopamine receptor, 3.16 nM. Consider `Cc1coc(-c2cccc(C(=O)N[C@H]3CC[C@H](CCN4CCc5ccc(OS(C)(=O)=O)cc5CC4)CC3)c2)n1`, for which the Ki at D(2) dopamine receptor is 200 nM; at D(3) dopamine receptor, 3.16 nM. The matching figures for `Cc1nc(-c2cccc(C(=O)N[C@H]3CC[C@H](CCN4CCc5ccc(OS(C)(=O)=O)cc5CC4)CC3)c2)no1`: 200 nM and 2.51 nM. The matching figures for `Cc1cc(-c2cccc(C(=O)N[C@H]3CC[C@H](CCN4CCc5ccc(S(C)(=O)=O)cc5CC4)CC3)c2)on1`: 501 nM and 3.98 nM. The corresponding values for `CS(=O)(=O)Oc1ccc2c(c1)CCN(CC[C@H]1CC[C@H](NC(=O)c3cccc4ccccc34)CC1)CC2` are 316 nM and 2.51 nM.

For the compound `CS(=O)(=O)Oc1ccc2c(c1)CCN(CC[C@H]1CC[C@H](NC(=O)c3cccc4ncccc34)CC1)CC2`, the Ki was 200 nM on D(2) dopamine receptor and 2 nM at D(3) dopamine receptor. Turning to `Cc1cc(-c2cccc(C(=O)N[C@H]3CC[C@H](CCN4CCc5ccc(OS(C)(=O)=O)cc5CC4)CC3)c2)on1`, the Ki on D(2) dopamine receptor was 158 nM; at D(3) dopamine receptor, 2 nM. The matching figures for `Cc1cnc(-c2cccc(C(=O)N[C@H]3CC[C@H](CCN4CCc5ccc(OS(C)(=O)=O)cc5CC4)CC3)c2)o1`: 316 nM and 3.16 nM.
